6 compounds from patent US20110224182A1, “SALTS OF (3-0-(3',3'-[…]) BETULINIC ACID AND SOLID STATE FORMS THEREOF” (Myriad Pharmaceuticals, Incorporated, priority 2007, published 2011) can be followed below.

Data set [1] can be described thus: Solubility (Method B): solvent added in portions until a clear solution is obtained. The class given is physicochemical. To be noted: ambient temperature. As for the experimental part: Method B-Solubility Measurement of the water solubility of the salts of this invention is accomplished by using methods well known to those skilled in the art. Specifically, to a weighed amount of DSB (+)-[…], DSB choline […], DSB diethanolamine […], or DSB diethylamine […], a solvent is added in small portions until a clear solution is obtained. The total volume of the solution is measured. The solubility of the particular DSB salt, in mg/mL, is calculated by dividing the weight of the salt (in mg), by the volume of the solution (in mL).

A short description of data set [2]: In vivo pharmacokinetic studies (Method H), plasma levels by LC-MS/MS. The conditions noted are these: rat; for Mean plasma concentration: as free drug. Also noted: species or system male Sprague-Dawley rats. As for the experimental part: Method H—In Vivo Pharmacokinetic Studies
In vivo experiments were conducted in male Sprague-Dawley rats having a body mass of 225 g to 275 g with an appropriate cannula surgically inserted. Rats were supplied food and water ad libitum until 12 hours before dosing when food was removed. Food was withheld until four hours post-dosing. Water was available ad libitum. Each of group of rats consisted of 3 rats.
Dosing solutions were prepared the same day as dose administration. […] The administered dose of each salt was 1 mg/kg for intravenous administration and 10 mg/kg for oral gavage. Formulations for intravenous administration were filtered after preparation. Concentrations of respective dosing solutions were as depicted in Table 1 below.
Sampling was performed at predose, 2, 5, 15, and 30 minutes, 1, 2, 4, and 8 hours post dose. Blood samples were collected, placed into chilled tubes containing sodium heparin, and kept chilled until centrifuged at 4° C. at 13,000 rpm for 5 minutes. Plasma was separated and stored at −60° C. to −80° C. until analyzed.
Plasma levels of the compounds were determined by LC-MS/MS. Quantification of the compounds in plasma was performed against a calibration curve generated by serial dilution of a test article DMSO stock solution into blank heparinized rat plasma (50, 100, 200, 500, 1,000, 2,000, 5,000, and 10,000 ng/mL final concentrations of free drug). Quality control samples were prepared in the same fashion (250, 1,000, and 5,000 ng/mL final concentrations of free drug). The standard curve and quality control DMSO stock solutions were derived from independent weightings.
Plasma concentrations versus time data are plotted in FIGS. 26 through 37.
All data are expressed as ng/mL of the free drug. Samples that were below the limit of quantification (“bloq”) were assigned a value of zero for the mean concentration calculations.

Setting [3] is: oral gavage 10 mg/kg, 0.083 h post dose.
The mark [4] stands for this setting: oral gavage 10 mg/kg, 0.25 h post dose.
[5] abbreviates: oral gavage 10 mg/kg, 0.5 h post dose.
The mark [6] stands for this setting: oral gavage 10 mg/kg, 1 h post dose.
Where [7] appears, read: oral gavage 10 mg/kg, 2 h post dose.
The mark [8] stands for this setting: oral gavage 10 mg/kg, 4 h post dose.
The mark [9] stands for this setting: oral gavage 10 mg/kg, 8 h post dose.
[10] abbreviates: oral gavage 10 mg/kg, relative to DSB-2 NMG intravenous.

In brackets after ≈: the same amount, converted by molar mass. Like-named read-outs stand apart in the source and are kept apart here.

For the compound `C=C(C)[C@@H]1CC[C@]2(C(=O)O)CC[C@]3(C)[C@H](CC[C@@H]4[C@@]5(C)CC[C@H](OC(=O)CC(C)(C)C(=O)O)C(C)(C)[C@@H]5CC[C@]43C)[C@@H]12` [DSB Free Acid, 3-O-(3′,3′-dimethylsuccinyl)betulinic acid], the solubility in data set [1] (1-propanol, organic solvent or mixture, thermodynamic from solid, 1-propanol, read-out: Solubility in 1-propanol) is 6000 µg/mL (≈ 10.3 mM); in data set [1] (2,2,2-trifluoroethanol, organic solvent or mixture, thermodynamic from solid, 2,2,2-trifluoroethanol, read-out: Solubility in 2,2,2-trifluoroethanol) it was 2500 µg/mL (≈ 4.27 mM); in data set [1] (2-propanol, organic solvent or mixture, thermodynamic from solid, 2-propanol, read-out: Solubility in 2-propanol), 6000 µg/mL (≈ 10.3 mM); in data set [1] (ethanol, organic solvent or mixture, thermodynamic from solid, ethanol, read-out: Solubility in ethanol), 15000 µg/mL (≈ 25.6 mM); in data set [1] (methanol, organic solvent or mixture, thermodynamic from solid, methanol, read-out: Solubility in methanol) it was 7500 µg/mL (≈ 12.8 mM); in data set [1] (water, thermodynamic from solid, water, read-out: Solubility in water) it was 350 µg/mL (≈ 0.598 mM).

Turning to “3-O-(3′,3′-dimethylsuccinyl)betulinic acid, bis-diethylamine salt [DSB-2 Diethylamine]”, the Mean plasma concentration in data set [2] (setting [3]) was determined as 352.7 ng/mL; in data set [2] (setting [4]), 4576.7 ng/mL; in data set [2] (setting [5]), 7420.0 ng/mL; in data set [2] (setting [6]), 6873.3 ng/mL; in data set [2] (setting [7]), 3750.0 ng/mL; in data set [2] (setting [8]), 1886.7 ng/mL. In data set [2] (setting [9]), this compound came in with a Mean plasma concentration of 233.7 ng/mL. In data set [2] (oral gavage 10 mg/kg, mean), this compound showed an AUC24 h of 21172.3 ng·h/mL. In data set [2] (oral gavage 10 mg/kg, mean), this compound displayed a Cmax of 7453.3 ng/mL. Besides, in data set [2] (oral gavage 10 mg/kg, mean), the time of peak concentration (Tmax) amounted to 40.2 min. Moreover, the “% Bioavailability” value in data set [2] (setting [10]) is listed as 30.7%.

Consider `C=C(C)[C@@H]1CC[C@]2(C(=O)O)CC[C@]3(C)[C@H](CC[C@@H]4[C@@]5(C)CC[C@H](OC(=O)CC(C)(C)C(=O)O)C(C)(C)[C@@H]5CC[C@]43C)[C@@H]12.CNC[C@H](O)[C@@H](O)[C@H](O)[C@H](O)CO.CNC[C@H](O)[C@@H](O)[C@H](O)[C@H](O)CO` [DSB-2 NMG, reference compound], for which the “% Bioavailability” value is given as 100.0% in data set [2] (intravenous 1 mg/kg (reference)) and 26.2% in data set [2] (setting [10]). Besides, the AUC24 h in data set [2] (intravenous 1 mg/kg, mean) came to 6890.6 ng·h/mL; in data set [2] (oral gavage 10 mg/kg, mean), 18041.1 ng·h/mL. Moreover, the Cmax in data set [2] (intravenous 1 mg/kg, mean) is recorded as 13785.9 ng/mL; in data set [2] (oral gavage 10 mg/kg, mean), 4480.0 ng/mL. In addition, the Tmax was determined as 0 min in data set [2] (intravenous 1 mg/kg, mean) and 96 min in data set [2] (oral gavage 10 mg/kg, mean). Further, the Mean plasma concentration came out at 491.0 ng/mL in data set [2] (setting [3]); 3706.7 ng/mL in data set [2] (setting [4]); 3246.7 ng/mL in data set [2] (setting [5]); 3236.7 ng/mL in data set [2] (setting [6]); 1973.7 ng/mL in data set [2] (setting [7]); 1662.3 ng/mL in data set [2] (setting [8]). The same compound showed a Mean plasma concentration in data set [2] (setting [9]) of 635.7 ng/mL.

As to bis-choline salt of DSB [DSB-2 Choline], the “% Bioavailability” value in data set [2] (in vivo, 10 mg/kg) was found to be 30.3%. The same compound displayed an AUC24 h in data set [2] (in vivo, po, 10 mg/kg) of 20872.2 ng·h/mL.

For the compound “bis-(+)-arginine salt of DSB [DSB-2 (+)-Arginine]”, the Mean plasma concentration in data set [2] (setting [3]) is listed as 2003.3 ng/mL; in data set [2] (setting [4]), 6796.7 ng/mL; in data set [2] (setting [5]), 6140.0 ng/mL; in data set [2] (setting [6]), 5793.3 ng/mL; in data set [2] (setting [7]), 4590.0 ng/mL; in data set [2] (setting [8]), 1615.3 ng/mL. The compound also gave a Mean plasma concentration in data set [2] (setting [9]) of 532.3 ng/mL. Besides, the AUC24 h in data set [2] (oral gavage 10 mg/kg, mean) was 24342.9 ng·h/mL. Moreover, the Cmax in data set [2] (oral gavage 10 mg/kg, mean) is on record as 7093.3 ng/mL. Besides, the Tmax in data set [2] (oral gavage 10 mg/kg, mean) was determined as 19.8 min. In data set [2] (setting [10]), the “% Bioavailability” value was 35.3%.

On to `C=C(C)[C@@H]1CC[C@]2(C(=O)O)CC[C@]3(C)[C@H](CC[C@@H]4[C@@]5(C)CC[C@H](OC(=O)CC(C)(C)C(=O)O)C(C)(C)[C@@H]5CC[C@]43C)[C@@H]12.OCCNCCO.OCCNCCO` [DSB-2 Diethanolamine, diethanolamine disalt of DSB], for which the Mean plasma concentration is on record as 880.7 ng/mL in data set [2] (setting [3]); 5190.0 ng/mL in data set [2] (setting [4]); 5743.3 ng/mL in data set [2] (setting [5]); 5873.3 ng/mL in data set [2] (setting [6]); 4730.0 ng/mL in data set [2] (setting [7]); 1830.0 ng/mL in data set [2] (setting [8]). In addition, in data set [2] (setting [9]), the Mean plasma concentration stood at 1149.3 ng/mL. In addition, the AUC24 h in data set [2] (oral gavage 10 mg/kg, mean) was 30958.7 ng·h/mL. The compound further gave a Cmax in data set [2] (oral gavage 10 mg/kg, mean) of 6720.0 ng/mL. In data set [2] (oral gavage 10 mg/kg, mean), the Tmax is 72 min. In data set [2] (setting [10]), the “% Bioavailability” value is recorded as 44.9%.
